{"source": "patent US20190011433A1", "about": "“CELL CO-CULTURE SYSTEMS AND USES THEREOF” (Dana-Farber Cancer Institute, Inc., priority 2007, published 2019)", "key": {"[1]": {"tested_on": "K562-luc leukemia cells", "test": "CS-BLI drug sensitivity of K562-luc leukemia cells in presence vs absence of HS-5 BMSCs", "type": "cell-based", "settings": "presence vs absence of HS-5 BMSCs (10,000 per well)", "excerpt": "(§1) Applicants expanded the application of in vitro compartment-specific bioluminescence imaging assays beyond the MM cells to other tumor models, namely a few leukemic cell lines. Applicants specifically tested luciferase-expressing K562-luc-neo and KU812F-luc-neo leukemic cells against standard anti-leukemia agents, including AraC and Doxo, in the presence vs. absence of HS-5 stromal cells (FIG. 7A and FIG. 7B)."}, "[2]": {"tested_on": "MM-1R-GFP-luc myeloma cells", "test": "CS-BLI drug sensitivity of MM-1R-GFP-luc cells in presence vs absence of stromal cells", "settings": "MM-1R-GFP-luc (Dex-resistant), presence vs absence of HS-5 BMSCs (10,000 per well)"}, "[3]": {"tested_on": "KU812F-luc leukemia cells", "test": "CS-BLI drug sensitivity of KU812F-luc leukemia cells in presence vs absence of HS-5 BMSCs", "type": "cell-based", "settings": "presence vs absence of HS-5 BMSCs (10,000 per well)", "excerpt": "In another set of experiments, Applicants tested and observed similar protective/sensitization effect of stroma cell on KU812F-luc cells on various drugs (data not shown).\nas §1"}, "[4]": {"tested_on": "FRO-luc-neo cells", "test": "CS-BLI drug sensitivity of FRO-luc-neo cells alone or with HS-5 BMSCs", "type": "cell-based", "settings": "FRO-luc-neo alone or with HS-5 BMSCs (10,000/well), 48 hrs", "protocol": "(§2) MDA-MB-231met-luc-neo (FIG. 18A, FIG. 18B), A375-luc-neo (FIG. 18C, FIG. 18D) and FRO-luc-neo (FIG. 18E, FIG. 18F) cells were plated either alone or mixed with HS-5 BMSCs (10,000 /well) and treated the following day. The cultures of tumor cells and their co-cultures with BMSCs were incubated for an additional 48 hrs."}, "[5]": {"tested_on": "A375-luc-neo cells", "test": "CS-BLI drug sensitivity of A375-luc-neo cells alone or with HS-5 BMSCs", "type": "cell-based", "settings": "A375-luc-neo alone or with HS-5 BMSCs (10,000/well), 48 hrs", "protocol": "as §2"}, "[6]": {"tested_on": "MM-1S-GFP-luc myeloma cells", "test": "CS-BLI drug sensitivity of MM-1S-GFP-luc cells in presence vs absence of stromal cells", "type": "cell-based, human", "protocol": "Luciferin (7.5 mg/mL; Xenogen Corp, Alameda, Calif.) was added at the volume stated in each experiment. Cell viability and the precise cell counts were established by Trypan blue exclusion assay immediately before plating of the cells. Compartment-specific bioluminescence emitted by individual wells of these plates was measured with two different bioluminescence imaging modalities, namely a Xenogen IVIS® Imaging System (FIG. 1A and FIG. 1B) and a standard luminometer plate reader—Luminoskan luminometer (Labsystems, MA) (FIG. 1C). The results with each method were analyzed for the linearity of the bioluminescent signal vs. cell number using the Living Image® software (Xenogen Corp, Alameda Calif.)."}, "[7]": {"tested_on": "MM-1S-GFP-luc myeloma cells", "test": "Flow cytometry (Apo2.7) drug sensitivity testing in tumor-stromal co-culture", "type": "cell-based, human", "settings": "Doxo 250 ng/mL, 48 hrs", "protocol": "Applicants also evaluated the anti-tumor effects of these drugs in the presence of stromal cells, and compared the results obtained with in vitro compartment-specific bioluminescence vs. flow cytometric evaluation of drug-induced cell death. Specifically, luciferase-expressing MM cells were treated in vitro with Doxo (250 ng/mL) or vehicle, in the absence vs. presence of bone marrow stromal cells (BMSCs). For flow cytometry-based drug sensitivity testing in tumor-stromal co-culture, tumor cell viability in the presence vs. absence of stromal cells was evaluated by flow cytometry. Specifically, after incubation with drug or vehicle, MM-1S-GFP-luc myeloma cells were stained with Apo2.7 (BD Biosciences) to detect apoptotic cells. GFP positive myeloma cells were gated to distinguish them from GFP negative stromal cells in the co-cultures. The ratio of Apo2.7 positive cells in the GFP^+ compartment of the drug-treated condition vs. the vehicle-treated condition provided a quantified expression of viable cells in response to drug treatment. […] These flow cytometric results were consistent with results obtained with CS-BLI based applications as described in Example III."}, "[8]": {"tested_on": "MDA-MB-231met-luc-neo cells", "test": "CS-BLI drug sensitivity of MDA-MB-231met-luc-neo cells alone or with HS-5 BMSCs", "type": "cell-based", "settings": "MDA-MB-231met-luc-neo alone or with HS-5 BMSCs (10,000/well), 48 hrs", "protocol": "as §2"}}, "note": "“Also recorded” adds a separate entry of the source.", "data": [{"smiles": "COc1cccc2c1C(=O)c1c(O)c3c(c(O)c1C2=O)C[C@@](O)(C(=O)CO)C[C@@H]3O[C@H]1C[C@H](N)[C@H](O)[C@H](C)O1", "note": "[Doxo, Doxorubicin]", "values": [{"measurement": "effect of BMSC co-culture on tumor cell response to drug (protection)", "setting": "[1]", "value": "do not confer protection"}, {"measurement": "effect of BMSC co-culture on tumor cell response to drug (protection)", "setting": "[2]", "value": "attenuated the responses; also recorded: confer protection"}, {"measurement": "effect of BMSC co-culture on tumor cell response to drug (protection)", "setting": "[3]", "value": "did not affect their response"}, {"measurement": "effect of BMSC co-culture on tumor cell response to drug (protection)", "setting": "[4]", "value": "modest protection"}, {"measurement": "effect of BMSC co-culture on tumor cell response to drug (protection)", "setting": "[5]", "value": "no protection"}, {"measurement": "effect of BMSC co-culture on tumor cell response to drug (protection)", "setting": "[6]; presence vs absence of HS-5 BMSCs (10,000 per well)", "value": "attenuated the responses; also recorded: conferred protection; also recorded: confer protection"}, {"measurement": "effect of BMSC co-culture on tumor cell response to drug (protection)", "setting": "[6]; presence vs absence of KM101, KM103, KM104, KM105 BMSC lines, Doxo 0-250 ng/mL", "value": "protective effects; also recorded: conferred protection"}, {"measurement": "Apo2.7 expression in GFP+ myeloma cells, co-culture with HS-5 vs absence of stroma", "setting": "[7]", "value": "decreased expression of Apo2.7"}, {"measurement": "effect of BMSC co-culture on tumor cell response to drug (protection)", "setting": "[8]", "value": "modest protection"}]}]}
